BindingDB's records for doi:10.7270/Q2RB7351 (Technical University of Gdansk, 1997)

Biological target: Glutamine--fructose-6-phosphate aminotransferase [isomerizing] (Candida albicans (strain SC5314 / ATCC MYA-2876), UniProt P53704)
Assay: Enzyme Assay
Conditions: pH 6.85
Excerpt: Two assays of GlcN-6-P synthase activity were used 1)determination of GlcN-6_P formation by the modified Elson-Morgan procedure and 2) continuous quantitation of glutamate in a coupled assay with glutamate dehydrogenase in the presence of acetylpyridine adenine dinucleotide.

Glutamine--fructose-6-phosphate aminotransferase [isomerizing], sequence (P53704 whole entry): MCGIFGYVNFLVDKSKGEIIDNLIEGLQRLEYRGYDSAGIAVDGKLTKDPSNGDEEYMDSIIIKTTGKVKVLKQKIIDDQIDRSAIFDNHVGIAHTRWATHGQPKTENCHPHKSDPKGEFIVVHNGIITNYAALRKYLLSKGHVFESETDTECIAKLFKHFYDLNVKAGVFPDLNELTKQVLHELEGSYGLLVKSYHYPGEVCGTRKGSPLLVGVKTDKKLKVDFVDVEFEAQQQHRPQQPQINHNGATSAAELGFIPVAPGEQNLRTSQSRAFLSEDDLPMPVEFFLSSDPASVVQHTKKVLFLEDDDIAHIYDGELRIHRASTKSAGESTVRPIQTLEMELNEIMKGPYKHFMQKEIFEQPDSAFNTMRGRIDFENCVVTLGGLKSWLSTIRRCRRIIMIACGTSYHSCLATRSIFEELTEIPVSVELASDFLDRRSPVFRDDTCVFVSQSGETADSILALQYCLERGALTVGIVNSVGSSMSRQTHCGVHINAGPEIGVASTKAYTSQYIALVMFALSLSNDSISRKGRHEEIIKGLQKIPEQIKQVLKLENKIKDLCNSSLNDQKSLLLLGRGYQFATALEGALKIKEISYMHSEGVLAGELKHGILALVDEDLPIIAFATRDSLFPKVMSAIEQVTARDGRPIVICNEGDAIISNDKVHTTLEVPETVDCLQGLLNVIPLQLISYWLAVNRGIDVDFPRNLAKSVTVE

Compound | IC50 | Ki
COC(=O)C(N)CCS(C)(=O)=O (racemic) [GlcN-6-P synthase inhibitor, 11 (racemic mixture)] | > 50 mM | 
COC(=O)C(N)CCP(=O)(OC)N(C)C [GlcN-6-P synthase inhibitor, 8 (racemic mixture)] | 4.4 mM | 1.3 mM
CO[P@@](=O)(O)CC[C@H](N)C(=O)O [GlcN-6-P synthase inhibitor, 5 (racemic mixture)] | 2 mM | 0.9 mM
CCNP(=O)(CCC(N)C(=O)OC)OC [GlcN-6-P synthase inhibitor, 7 (racemic mixture)] | 7.8 mM | 4.4 mM
COC(=O)C(N)CCP(N)(=O)OC [GlcN-6-P synthase inhibitor, 6 (racemic mixture)] | 25 mM | 11 mM
N[C@@H](CCP(=O)(O)O)C(=O)O | 26 mM | 12 mM
COC(=O)C(N)CCS(N)(=O)=O (racemic) [GlcN-6-P synthase inhibitor, 14 (racemic mixture)] | 5.5 mM | 2.8 mM
CCN(CC)S(=O)(=O)CCC(N)C(=O)OC (racemic) [GlcN-6-P synthase inhibitor, 15 (racemic mixture)] | 1.6 mM | 0.6 mM
CCN(CC)P(=O)(CCC(N)C(=O)OC)OC [GlcN-6-P synthase inhibitor, 9 (racemic mixture)] | 3.6 mM | 0.94 mM
COP(=O)(CCC(N)C(=O)O)OC [GlcN-6-P synthase inhibitor, 3 (racemic mixture)] | > 50 mM | 
COC(=O)C(N)CNS(C)(=O)=O (racemic) [GlcN-6-P synthase inhibitor, 12 (racemic mixture)] | > 50 mM | 
COC(=O)C(N)CCP(=O)(OC)OC [GlcN-6-P synthase inhibitor, 2 (racemic mixture)] | > 50 mM | 
COC(=O)C(N)CCP(=O)(O)OC [GlcN-6-P synthase inhibitor, 4 (racemic mixture)] | 2.6 mM | 1.2 mM
COC(=O)C(N)CCS(C)(=N)=O [GlcN-6-P synthase inhibitor, 13 (racemic mixture)] | 2.8 mM | 1.5 mM
